# Data as given in ChEMBL document CHEMBL3638676, “Triazolopyridine compounds” (2015).
# Biological target: Phosphodiesterase 3 (Homo sapiens, UniProt Q14432+Q13370)
# Assay: Scintillation Proximity Assay (SPA): The kinase assay is based on the LanthaScreen technology.
# Assay type: protein assay
compound,measurement,value
Cn1cc(-c2cc(F)c3nnc(Sc4ccc5ncc(NCCO)cc5c4)n3c2)cn1,IC50,13 µM
